Assay results as given in paper PMC7918733, “Biological Profiling of Semisynthetic C19-Functionalized Ferruginol and Sugiol Analogues” (Antibiotics, 2021).
Read-outs that look alike come from different tables or passages of the source.

Assays:
A549 (Lung) [1] = conditions: cited from earlier work
HBL-100 (Breast) = conditions: cited from earlier work
HeLa (Cervix) = conditions: cited from earlier work
SW1573 (Lung) [2] = conditions: cited from earlier work
T-47D (Breast) = conditions: cited from earlier work
WiDr (Colon) [3] = conditions: cited from earlier work
A549 (Lung) [4] = experiment: Antiproliferative SRB assay; type: cell-based, human; conditions: mean ± SD of at least two experiments
Experimental: (§1) Cells, cultures and the activity test of abietane analogs followed reported methods. The SRB assay was performed as previously described, and the antiproliferative activity was given as GI50 values, which were calculated according to NCI formulas.

SW1573 (Lung) [5] = experiment: Antiproliferative SRB assay; type: cell-based, human; conditions: mean ± SD of at least two experiments
Experimental: as §1

WiDr (Colon) [6] = experiment: Antiproliferative SRB assay; type: cell-based, human; conditions: mean ± SD of at least two experiments
Experimental: as §1

[7] = target: T1, GABAA receptor subtype (α1β2γ2S) (Homo sapiens, UniProt P14867+P18507+P47870); experiment: Two-microelectrode voltage-clamp in Xenopus laevis oocytes
Experimental: All molecules were tested at concentrations of 10, 100 μM and compared with dehydroabietic acid (DHA) (3) as a reference [16].

Macrophages J774 = conditions: cited from earlier work
[8] = target: T1, GABAA receptor subtype (α1β2γ2S); parameters: expressed in transfected cells; host or cells: Xenopus laevis oocytes; conditions: cited from earlier work
[9] = system: L. infantum promastigotes; parameters: method as in PMID 30840453; conditions: C18-congeners, read-out: L. infantum IC50 ± SD; cited from earlier work
[10] = system: L. donovani promastigotes; conditions: C18-congeners, read-out: L. donovani IC50 ± SD; cited from earlier work
[11] = system: L. amazonensis promastigotes; parameters: method as in PMID 30840453; conditions: C18-congeners, read-out: L. amazonensis IC50 ± SD; cited from earlier work
[12] = system: L. guyanensis promastigotes; parameters: method as in PMID 30840453; conditions: C18-congeners, cited from earlier work; for IC50: read-out: L. guyanensis IC50 ± SD
[13] = read-out: Macrophages J774 CC50, C18-congeners

T1 sequence (P14867 28-456): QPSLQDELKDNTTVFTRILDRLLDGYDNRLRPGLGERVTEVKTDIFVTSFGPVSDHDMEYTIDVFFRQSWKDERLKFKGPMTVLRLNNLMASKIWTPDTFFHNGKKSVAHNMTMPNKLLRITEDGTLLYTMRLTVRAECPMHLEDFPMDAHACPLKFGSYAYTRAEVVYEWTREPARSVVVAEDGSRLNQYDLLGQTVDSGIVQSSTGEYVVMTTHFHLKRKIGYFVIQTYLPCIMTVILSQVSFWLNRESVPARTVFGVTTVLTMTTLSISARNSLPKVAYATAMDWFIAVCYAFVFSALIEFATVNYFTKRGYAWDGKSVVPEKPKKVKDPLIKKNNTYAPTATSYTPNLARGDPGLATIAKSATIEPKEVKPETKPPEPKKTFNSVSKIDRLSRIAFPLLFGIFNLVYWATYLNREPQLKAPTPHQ
T1 sequence (P47870 26-512): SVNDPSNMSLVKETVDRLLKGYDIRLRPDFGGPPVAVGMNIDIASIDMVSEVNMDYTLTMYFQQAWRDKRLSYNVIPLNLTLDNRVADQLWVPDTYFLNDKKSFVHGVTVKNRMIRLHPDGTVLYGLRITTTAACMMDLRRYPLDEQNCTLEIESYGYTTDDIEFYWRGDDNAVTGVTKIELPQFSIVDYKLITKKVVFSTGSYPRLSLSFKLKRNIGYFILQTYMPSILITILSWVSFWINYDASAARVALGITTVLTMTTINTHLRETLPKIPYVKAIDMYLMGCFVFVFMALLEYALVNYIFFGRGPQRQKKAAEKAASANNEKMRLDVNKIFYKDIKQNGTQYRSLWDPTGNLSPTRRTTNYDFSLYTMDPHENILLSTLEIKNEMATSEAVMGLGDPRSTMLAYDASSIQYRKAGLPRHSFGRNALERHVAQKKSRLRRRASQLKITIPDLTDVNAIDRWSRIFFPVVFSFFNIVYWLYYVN
T1 sequence (P18507 40-467 isoform P18507-1 limits assumed): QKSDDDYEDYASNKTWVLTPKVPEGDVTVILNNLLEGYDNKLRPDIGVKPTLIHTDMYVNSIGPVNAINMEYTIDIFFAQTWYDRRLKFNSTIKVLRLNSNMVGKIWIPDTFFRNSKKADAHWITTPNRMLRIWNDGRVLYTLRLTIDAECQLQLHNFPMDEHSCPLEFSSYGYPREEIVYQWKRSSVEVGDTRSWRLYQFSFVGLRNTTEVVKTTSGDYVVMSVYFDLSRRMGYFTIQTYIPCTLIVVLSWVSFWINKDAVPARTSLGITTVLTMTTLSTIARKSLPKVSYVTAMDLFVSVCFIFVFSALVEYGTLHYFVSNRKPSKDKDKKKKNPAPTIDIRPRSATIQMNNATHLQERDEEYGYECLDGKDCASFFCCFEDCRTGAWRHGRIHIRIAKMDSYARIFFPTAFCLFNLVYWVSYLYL

COC(=O)[C@@]1(C)CCC[C@]2(C)c3ccc(C(C)C)cc3CC[C@@H]12 [Compound 7, methyl callitrisate]
GI50 (A549 (Lung) [1]): 10 ± 1.9 µM | GI50 (HBL-100 (Breast)): 14 ± 5 µM | GI50 (HeLa (Cervix)): 16 ± 2.5 µM | GI50 (SW1573 (Lung) [2]): 17 ± 2.2 µM | GI50 (T-47D (Breast)): 8.8 ± 2.7 µM | GI50 (WiDr (Colon) [3]): 6.4 ± 2.1 µM

N.N.[Cl][Pt][Cl] [cisplatin, reference compound]
GI50 (A549 (Lung) [4]): 4.9 ± 0.2 µM | GI50 (SW1573 (Lung) [5]): 2.7 ± 0.4 µM | GI50 (WiDr (Colon) [6]): 23 ± 4.3 µM

CC(C)c1ccc2c(c1)CC[C@H]1[C@](C)(C(=O)O)CCC[C@]21C [Compound 3, dehydroabietic acid, reference compound]
activation at 10 µM ([7]; read-out: IGABA Potentiation of 10 µM (%)): 192 ± 10% | activation at 100 µM ([7]; read-out: IGABA Potentiation of 100 µM (%)): 789 ± 82%

COC(=O)[C@]1(C)CCC[C@]2(C)c3cc(O)c(C(C)C)cc3C(=O)C[C@@H]12 [Compound 16b]
GI50 (A549 (Lung) [1]; C18-congeners): > 100 µM | GI50 (HBL-100 (Breast); C18-congeners): > 100 µM | GI50 (HeLa (Cervix); C18-congeners): > 100 µM | GI50 (SW1573 (Lung) [2]; C18-congeners): > 100 µM | GI50 (T-47D (Breast); C18-congeners): > 100 µM | GI50 (WiDr (Colon) [3]; C18-congeners): > 100 µM | CC50 (Macrophages J774; [13]): 154 ± 49.3 µM | IGABA Potentiation of 10 µM (%) ([8]; C18-congeners): 37.4 ± 12.7% | IGABA Potentiation of 100 µM (%) ([8]; C18-congeners): 242.4 ± 46.0%

CC(C)c1cc2c(cc1O)[C@@]1(C)CCC[C@@](C)(C(=O)O)C1CC2 (some centres unmarked) [Compound 13b, 12-hydroxydehydroabietic acid]
IC50 [9]: 43.6 ± 3.4 µM | IC50 [10]: 58.1 ± 0.7 µM | IC50 [11]: 54.1 ± 6.5 µM | IC50 [12]: 71.4 ± 1.5 µM | GI50 (A549 (Lung) [1]; C18-congeners): 70 ± 6.3 µM | GI50 (HBL-100 (Breast); C18-congeners): > 100 µM | GI50 (HeLa (Cervix); C18-congeners): 96 ± 5.5 µM | GI50 (SW1573 (Lung) [2]; C18-congeners): 93 ± 9.3 µM | GI50 (T-47D (Breast); C18-congeners): > 100 µM | GI50 (WiDr (Colon) [3]; C18-congeners): > 100 µM | CC50 (Macrophages J774; [13]): 85.8 ± 28.8 µM | IGABA Potentiation of 10 µM (%) ([8]; C18-congeners): 8.9 ± 2.3% | IGABA Potentiation of 100 µM (%) ([8]; C18-congeners): 12.1 ± 2.9%

CC(C)c1cc2c(cc1O)[C@@]1(C)CCC[C@@](C)(CO)[C@@H]1CC2 [Compound 14b]
IC50 [9]: 0.7 ± 0.1 µM | IC50 [10]: 13.9 ± 0.1 µM | IC50 [11]: 7.7 ± 0.8 µM | IC50 [12]: 12.5 ± 2.2 µM | GI50 (A549 (Lung) [1]; C18-congeners): 12 ± 1.9 µM | GI50 (HBL-100 (Breast); C18-congeners): 16 ± 2 µM | GI50 (HeLa (Cervix); C18-congeners): 12 ± 1.8 µM | GI50 (SW1573 (Lung) [2]; C18-congeners): 15 ± 2.8 µM | GI50 (T-47D (Breast); C18-congeners): 16 ± 0.9 µM | GI50 (WiDr (Colon) [3]; C18-congeners): 17 ± 1.3 µM | CC50 (Macrophages J774; [13]): 23.4 ± 4.6 µM | IGABA Potentiation of 10 µM (%) ([8]; C18-congeners): 29.3 ± 10.6% | IGABA Potentiation of 100 µM (%) ([8]; C18-congeners): 154.1 ± 34.2%

CC(C)c1cc2c(cc1O)C1(C)CCCC(C)(C(=O)O)C1CC2=O (single isomer, unassigned; (+)) [Compound 8b, (+)-liquiditerpenoic acid A]
L. guyanensis IC50 ± SD [12]: inactive | GI50 (A549 (Lung) [1]; C18-congeners): > 100 µM | GI50 (HBL-100 (Breast); C18-congeners): > 100 µM | GI50 (HeLa (Cervix); C18-congeners): 85 ± 21 µM | GI50 (SW1573 (Lung) [2]; C18-congeners): > 100 µM | GI50 (T-47D (Breast); C18-congeners): > 100 µM | GI50 (WiDr (Colon) [3]; C18-congeners): > 100 µM | CC50 (Macrophages J774): 219 ± 15 µM | IGABA Potentiation of 10 µM (%) ([8]; C18-congeners): −2.2 ± 4.4% | IGABA Potentiation of 100 µM (%) ([8]; C18-congeners): −21.1 ± 7.1%

COC(=O)[C@]1(C)CCC[C@]2(C)c3cc(OC(C)=O)c(C(C)C)cc3C(=O)C[C@@H]12 [Compound 11b]
IC50 [9]: 0.7 ± 0.2 µM | IC50 [10]: 4.4 ± 0.5 µM | IC50 [11]: 0.65 ± 0.03 µM | IC50 [12]: 1.3 ± 0.1 µM | GI50 (A549 (Lung) [1]; C18-congeners): 14 ± 0.4 µM | GI50 (HBL-100 (Breast); C18-congeners): 16 ± 1.5 µM | GI50 (HeLa (Cervix); C18-congeners): 13 ± 2.3 µM | GI50 (SW1573 (Lung) [2]; C18-congeners): 17 ± 1.9 µM | GI50 (T-47D (Breast); C18-congeners): 20 ± 2.9 µM | GI50 (WiDr (Colon) [3]; C18-congeners): 19 ± 1.7 µM | CC50 (Macrophages J774; [13]): 17.8 ± 2.8 µM | IGABA Potentiation of 10 µM (%) ([8]; C18-congeners): −1.0 ± 2.8% | IGABA Potentiation of 100 µM (%) ([8]; C18-congeners): 46.7 ± 8.3%

CC(C)c1ccc2c(c1)CC[C@H]1[C@@](C)(C(=O)O)CCC[C@]21C [Compound 6, callitrisic acid]
IGABA Potentiation of 10 µM (%) [8]: 14 ± 5% | IGABA Potentiation of 100 µM (%) [8]: 269 ± 24%
